The results in this text go back to US8426447B2, “Spiro-tricyclic ring compounds as beta-secretase modulators and methods of use” (Amgen Inc., priority 2008, dated 2013).

For test [1], the target named is T1, BACE1 (Homo sapiens, UniProt P56817). The test can be described thus: In Vitro Enzymatic BACE FRET (Fluorescence Resonance Energy Transfer) Assay. It is filed as biochemical. The conditions noted are these: read-out: BACE1 FRET assay; for IC50: Table III, IC50's in uM ranges. The method, boiled down:
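First, compound and enzyme sit in 0.05 M acetate (pH 4.2, 10% DMSO final, 100 uM nonionic genapol). Next, 50 nM quenched FRET peptide starts the reaction for one hour. Last, Tris neutralises the mixture before fluorescence is measured.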

Test [2] deals with T1, BACE1. The test can be described thus: In Vitro BACE Cell-based Assay (HEK cell assay): Aβ40 in conditioned medium of cells stably expressing Amyloid Precursor Protein, sandwich ELISA. As to conditions: read-out: HEK cell assay; for IC50: Table III, IC50's in uM ranges. The method, boiled down:
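APP-expressing cells were cultured 24 h in DMEM/10% FBS, then treated 24 h with compounds in 10-point dose response (top 100 μM or 10 μM; 0.1% DMSO final). Secreted Aβ40 was quantified by sandwich ELISA (pAb40 capture, biotinylated 6E10 detection, Europium TRF); IC50 from percent inhibition versus concentration.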
Background: In an ELISA, binding on a coated surface is turned into a signal by an enzyme label.

Where [3] appears, read: Table II, Aβ40, 24 h incubation.
The mark [4] stands for this setting: in vitro BACE FRET enzyme assay, IC50 class symbols.
Where [5] appears, read: HEK cell-based assay, Aβ40 in conditioned medium, IC50 class symbols.

The structures appear in SMILES notation. pIC50: −log10 of the molar value. Bounds are passed on as bounds.

T1 sequence (P56817 46-501, species assumed): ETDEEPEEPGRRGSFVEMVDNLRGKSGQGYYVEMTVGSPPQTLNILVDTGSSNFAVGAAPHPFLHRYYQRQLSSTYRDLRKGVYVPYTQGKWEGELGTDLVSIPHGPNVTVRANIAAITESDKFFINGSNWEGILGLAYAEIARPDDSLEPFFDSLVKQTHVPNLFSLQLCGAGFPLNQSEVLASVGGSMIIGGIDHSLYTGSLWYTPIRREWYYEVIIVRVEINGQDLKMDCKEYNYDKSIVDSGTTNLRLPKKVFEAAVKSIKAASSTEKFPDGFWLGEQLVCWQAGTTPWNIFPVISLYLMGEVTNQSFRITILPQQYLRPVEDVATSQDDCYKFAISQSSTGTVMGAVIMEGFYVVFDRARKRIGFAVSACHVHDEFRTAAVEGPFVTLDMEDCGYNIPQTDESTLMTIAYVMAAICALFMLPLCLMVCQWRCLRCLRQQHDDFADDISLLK

For `NC1=N[C@@]2(CO1)c1cc(-c3cncnc3)ccc1Oc1ncc(C#CC3CC3)cc12` [compound 742], the pIC50 at BACE1 [1] and at BACE1 [2] was above 7.00 each time.

As for `CC(C)(C)COc1ccc2c(c1)[C@]1(COC(N)=N1)c1cc(-c3cnc4ccccn34)ccc1O2` [compound 975], the pIC50 on BACE1 [1] and at BACE1 [2] was 6.00 to 7.00 throughout.

As for `COC(C)(C)COc1ccc2c(c1)[C@@]1(COC(N)=N1)c1cc(-c3cccnc3)cnc1O2` [compound 983], the pIC50 at BACE1 [1] and at BACE1 [2] was above 7.00 each time.

For the compound `COC(C)(C)C#Cc1cc(F)c2c(c1)[C@@]1(COC(N)=N1)c1cc(-c3ccc(F)nc3)ccc1O2` [compound 645], the pIC50 on BACE1 [1] (Table IV, class symbols) is 6.00 to 7.00; at BACE1 [2] (Table IV, class symbols) it was 5.30 to 6.00.

As to `CC(C)(C)COc1ccc2c(c1)[C@]1(COC(N)=N1)c1cc(-c3csc(N4CCCC4)n3)ccc1O2` [compound 215], the IC50 at BACE1 [1] was 1 to 5 µM; on BACE1 [2], above 5 µM.

As to `CC(C)(C)COc1ccc2c(c1)[C@]1(COC(N)=N1)c1cc(-c3ccc4[nH]ccc4c3)ccc1O2` [Example 73, (4S)-2′-(2,2-dimethylpropoxy)-7′-(1H-indol-5-yl)spiro[1,3-oxazole-4,9′-xanthen]-2-amine], the values for the pIC50 on BACE1 [1] (Table II) and on BACE1 [2] (setting [3]) were 6.00 to 7.00 and 5.30 to 6.00, respectively.

On to `NC1=N[C@@]2(CO1)c1cc(-c3cccnc3)ccc1Oc1ccc(Cl)nc12` [compound 393], for which the pIC50 is 6.00 to 7.00 at BACE1 [1] (setting [4]) and 5.30 to 6.00 on BACE1 [2] (setting [5]).

`NC1=N[C@@]2(CO1)c1cc(-c3cccnc3)ccc1Oc1ccc(-c3cccnc3)nc12` [compound 989]: the pIC50 at BACE1 [1] and at BACE1 [2] was 6.00 to 7.00 in each case.

For `NC1=N[C@@]2(CO1)c1cc(-c3cccnc3N3CCOCC3)ccc1Oc1cnc(Cl)cc12` [compound 337], the pIC50 on BACE1 [1] (setting [4]) is 5.30 to 6.00; at BACE1 [2] (setting [5]) it was below 5.30.

With `Cc1ccc(-c2ccc3c(c2)[C@@]2(COC(N)=N2)c2cc(OCC(C)(C)C)ccc2O3)cn1` [Example 80, (4S)-2′-(2,2-dimethylpropoxy)-7′-(6-methyl-3-pyridinyl)spiro[1,3-oxazole-4,9′-xanthen]-2-amine], the pIC50 is 6.00 to 7.00 on BACE1 [1] (Table II) and 5.30 to 6.00 on BACE1 [2] (setting [3]).

`COC(C)(C)COc1cc2c(cc1F)Oc1ccc(-c3cccnc3)cc1[C@@]21COC(N)=N1` [compound 544]: the pIC50 on BACE1 [1] (Table IV, class symbols) was above 7.00; on BACE1 [2] (Table IV, class symbols), above 7.00.

Regarding `NC1=N[C@]2(CO1)c1cc(OC[C@H](O)C(F)(F)F)ccc1Oc1ccc(-c3cccnc3)cc12` [compound 924], the pIC50 on BACE1 [1] (Table IV, class symbols) was above 7.00; at BACE1 [2] (Table IV, class symbols), 6.00 to 7.00.

As to `CN(C)CC#Cc1ccc2c(c1)[C@@]1(COC(N)=N1)c1cc(-c3cncnc3)ccc1O2` [117b], the IC50 lay in the range of 1 to 5 µM at BACE1 [1] and 0.1 to 1 µM on BACE1 [2].

For the compound `Cc1ccc(-n2ccc3c(c2=O)[C@@]2(COC(N)=N2)c2cc(-c4cccnc4)ccc2O3)cc1` [compound 503], the pIC50 at BACE1 [1] was below 5.30; on BACE1 [2] (HEK cells), 5.30 to 6.00.

Regarding `NC1=N[C@]2(CO1)c1cc(-c3ccccc3)ccc1Oc1ncc(C3=CCOCC3)cc12` [compound 718], the pIC50 at BACE1 [1] and on BACE1 [2] was 5.30 to 6.00 throughout.

Consider `NC1=N[C@]2(CO1)c1cc(OCC3CCCO3)ccc1Oc1ccc(-c3cncnc3)cc12` (stereo partly drawn) [Example 60, (4S)-2′-(5-pyrimidinyl)-7′-(tetrahydro-2-furanylmethoxy)spiro[1,3-oxazole-4,9′-xanthen]-2-amine], for which the pIC50 on BACE1 [1] (Table II) and at BACE1 [2] (setting [3]) was above 7.00 in each case.

In the case of `NC1=N[C@@]2(CO1)c1ccccc1Oc1ccc(-c3cnc4ccccc4c3)cc12` [compound 628], the pIC50 at BACE1 [1] (Table IV, class symbols) is below 5.30; on BACE1 [2] (Table IV, class symbols), below 5.30.

Consider `NC1=N[C@@]2(CO1)c1cc(-c3cccnc3F)ccc1Oc1cnc(Cl)cc12` [compound 551], for which the pIC50 on BACE1 [1] (Table IV, class symbols) is 6.00 to 7.00; at BACE1 [2] (Table IV, class symbols), 6.00 to 7.00.

As for `Cc1nc(-c2ccc3c(c2)[C@]2(COC(N)=N2)c2cc(-c4cccnc4)ccc2O3)cs1` [compound 679], the pIC50 at BACE1 [1] and on BACE1 [2] was above 7.00 in each case.

For the compound `NC1=N[C@@]2(CO1)c1cc(-c3cncnc3)ccc1Oc1cnc(Cl)cc12` [compound 500], the pIC50 is 6.00 to 7.00 at BACE1 [1] and 5.30 to 6.00 on BACE1 [2] (HEK cells).

Regarding `N#Cc1ccccc1Oc1ccc2c(c1)[C@]1(COC(N)=N1)c1cc(-c3cccnc3)ccc1O2` [compound 986], the pIC50 on BACE1 [1] is 6.00 to 7.00; on BACE1 [2], 5.30 to 6.00.

On to `CC(C)(C)C#Cc1cnc2c(c1)[C@@]1(COC(N)=N1)c1cc(-c3cccnc3)ccc1O2` [185a], for which the results for the IC50 at BACE1 [1] and at BACE1 [2] were 0.1 to 1 µM and 1 to 5 µM, respectively.

As for `CC1(C)CC1c1cc2c(cn1)Oc1ccc(-c3cccnc3)cc1[C@]21COC(N)=N1` (some centres unmarked) [compound 677], the pIC50 at BACE1 [1] was above 7.00; on BACE1 [2], 6.00 to 7.00.

Consider `COC(=O)c1ccc2c(c1)[C@@]1(COC(N)=N1)c1cc(OCC(C)(C)C)ccc1O2` [compound 850], for which the pIC50 was 6.00 to 7.00 on BACE1 [1] (Table IV, class symbols) and 5.30 to 6.00 on BACE1 [2] (Table IV, class symbols).

For `COC1CN(c2cnc3c(c2)[C@]2(COC(N)=N2)c2cc(-c4cc(F)ccc4F)ccc2O3)C1` [compound 456], the pIC50 on BACE1 [1] and at BACE1 [2] (HEK cells) was above 7.00 each time.

`CC(C)(C)COc1ccc2c(c1)[C@]1(COC(N)=N1)c1cc(C3CC3(C)C)ccc1O2` (some centres unmarked) [compound 754]: the pIC50 at BACE1 [1] was above 7.00; on BACE1 [2], 6.00 to 7.00.

Take `COc1cccc(-c2ccc3c(c2)C2(COC(N)=N2)c2ccc(C)cc2O3)c1F` (centres unmarked) [Example 30, 2′-(2-fluoro-3-methoxyphenyl)-6′-methylspiro[1,3-oxazole-4,9′-xanthen]-2-amine]: the pIC50 at BACE1 [1] (Table 1) was below 5.30; on BACE1 [2] (Table 1, Aβ40, 24 h incubation), below 5.30.

As for `CC(C)(C)COc1ccc2c(n1)[C@@]1(COC(N)=N1)c1cc(Br)ccc1O2` [compound 736], the pIC50 was 5.30 to 6.00 at BACE1 [1] and below 5.30 at BACE1 [2].

With `NC1=N[C@]2(CO1)c1cc(C3=CCOCC3)ccc1Oc1cc(F)c(-c3cncnc3)cc12` [compound 529], the pIC50 on BACE1 [1] and on BACE1 [2] (HEK cells) was above 7.00 throughout.

Take `COc1ccc2c(c1)[C@]1(N=C(N)O[C@@H]1C)c1cc(-c3cncnc3)ccc1O2` (single isomer, unassigned) [Example 125c]: the IC50 on BACE1 [1] and at BACE1 [2] was above 5 µM each time.

Regarding `CC(C)(C)C#Cc1ccc2c(n1)[C@]1(COC(N)=N1)c1cc(-c3cccnc3)ccc1O2` [compound 854], the pIC50 on BACE1 [1] (Table IV, class symbols) is above 7.00; at BACE1 [2] (Table IV, class symbols), above 7.00.

Take `CC(C)(C)COc1ccc2c(c1)[C@@]1(COC(N)=N1)c1cc(-c3ccccc3)cnc1O2` [compound 807]: the pIC50 on BACE1 [1] (Table IV, class symbols) was above 7.00; at BACE1 [2] (Table IV, class symbols), above 7.00.

With `CC(C)(C)CCc1ccc2c(c1)[C@]1(COC(N)=N1)c1cc(Oc3ccccn3)ccc1O2` [compound 205], the IC50 was below 0.1 µM on BACE1 [1] and 0.1 to 1 µM at BACE1 [2].

For the compound `Cc1cccc(-c2ccc3c(c2)[C@]2(COC(N)=N2)c2cccnc2O3)c1` [compound 596], the pIC50 on BACE1 [1] (Table IV, class symbols) was 6.00 to 7.00; on BACE1 [2] (Table IV, class symbols), 5.30 to 6.00.

For `CC(C)(C)COc1ccc2c(c1)[C@@]1(COC(N)=N1)c1cc(-c3ccc(C#N)cc3)ccc1O2` [Example 128, (R)-4-(2-amino-2′-(neopentyloxy)-5H-spiro[oxazole-4,9′-xanthene]-7′-yl)benzonitrile], the IC50 on BACE1 [1] is below 0.1 µM; on BACE1 [2] it was 0.1 to 1 µM.

As to `CC(C)(C)OC(=O)CCc1ccc2c(c1)[C@]1(COC(N)=N1)c1cc(-c3cncnc3)ccc1O2` [compound 826], the pIC50 was 6.00 to 7.00 at BACE1 [1] (Table IV, class symbols) and 5.30 to 6.00 at BACE1 [2] (Table IV, class symbols).

In the case of `NC1=N[C@]2(CO1)c1cc(-c3cncnc3)ccc1Oc1c(F)cccc12` [compound 552], the pIC50 at BACE1 [1] (Table IV, class symbols) was below 5.30; on BACE1 [2] (Table IV, class symbols) it was below 5.30.

As to `CCOc1ccc(-c2cnc3c(c2)[C@]2(COC(N)=N2)c2cc(OC)ccc2O3)cn1` [compound 667], the pIC50 at BACE1 [1] and on BACE1 [2] was 6.00 to 7.00 throughout.

For the compound `NC1=N[C@@]2(CO1)c1cc(-c3cccnc3)ccc1Oc1c(F)cccc12` [compound 592], the pIC50 at BACE1 [1] (Table IV, class symbols) is above 7.00; at BACE1 [2] (Table IV, class symbols) it was 6.00 to 7.00.

`COCC#Cc1ccc2c(c1)[C@@]1(COC(N)=N1)c1cc(-c3cncnc3)ccc1O2` [156b]: the IC50 at BACE1 [1] and on BACE1 [2] was 0.1 to 1 µM in each case.

As to `COCC[C@H]1CN(c2ccc3c(c2)[C@]2(COC(N)=N2)c2cc(-c4cccnc4)ccc2O3)CCO1` [compound 361], the values for the pIC50 on BACE1 [1] (setting [4]) and at BACE1 [2] (setting [5]) were 6.00 to 7.00 and above 7.00, respectively.

In the case of `CC(C)(C)C#Cc1ccc2c(c1)[C@@]1(COC(N)=N1)c1cc(-c3cccnc3)cnc1O2` [compound 160], the IC50 on BACE1 [1] and on BACE1 [2] was below 0.1 µM in each case.

In the case of `CC(C)(O)CCc1ccc2c(c1)[C@]1(COC(N)=N1)c1cc(-c3cccnc3)ccc1O2` [compound 193], the IC50 on BACE1 [1] and at BACE1 [2] was below 0.1 µM each time.

With `NC1=N[C@@]2(CO1)c1cc(-c3cccnc3)ccc1Oc1cc(F)c(C3=CCOCC3)cc12` [compound 476], the pIC50 on BACE1 [1] and on BACE1 [2] (HEK cells) was above 7.00 in each case.

As for `CC(C)C#Cc1cnc2c(c1)[C@]1(COC(N)=N1)c1cc(-c3cncnc3)ccc1O2` [compound 743], the pIC50 at BACE1 [1] and on BACE1 [2] was above 7.00 throughout.

In the case of `COC(C)(C)C#Cc1cnc2c(c1)[C@@]1(COC(N)=N1)c1cc(-c3ccc(F)nc3)ccc1O2` [compound 723], the results for the pIC50 at BACE1 [1] and at BACE1 [2] were 6.00 to 7.00 and 5.30 to 6.00, respectively.
